The assay has as its system COV434 cells. In words: NAD cell assay (NAD cycling method), cellular NAD+ levels. It counts as cell-based, human. To be noted: NAD levels in COV434 cells, 200 uM, 4 hr; for Fold increase compared to NMN: normalised to protein; for Fold Increase compared to NMN on a molar basis: mole per mole comparison of salt and parent. As to the method:
NAD levels were assayed based on the NAD cycling method of Zhu and Rand, PLoS One (2012), herein incorporated by reference. COV434 cells were maintained in 6 well plates and treated with the indicated compounds at a concentration of 200 uM for 4 hr. Media was removed, plates were washed in cold PBS and cells were scraped down in NAD extraction buffer containing 10 mM nicotinamide, 50 mM Tris HCl, 0.1% Triton X-100. Cells were homogenised by sonication for 5 seconds, and samples were centrifuged at 7,000 g for 5 min at 4 degrees. Aliquots were taken for later protein assay, and samples were then passed through 10 kDa amicon filters at 14,000 g, 30 min at 4 degrees to remove proteins from the sample. Each sample was measured in technical triplicate, with 25 μL sample added to 100 μL ADH cycling mix (0.2 mg/ml alcohol dehydrogenase enzyme, 2% ethanol, 100 mM Tris pH 8.5). Samples were allowed to cycle for 10 min at room temperature, followed by 50 μL addition of an MTT/PMS solution (0.1 mM phenazine methosulfate, 0.8 mM 3-(4,5-Dimethylthiazol-2-yl)-2,5-diphenyltetrazolium bromide), 100 mM Tris-HCl pH 8.5). Plates were then incubated for 15 min and absorbance was measured at 570 nm. NAD concentrations were extrapolated from a standard curve, and normalised to protein concentrations determined by BCA protein assay.
The fold increase is obtained through a direct comparison on a mole per mole between the compared salt and its parent counterpart.

Take `NC(=O)c1ccc[n+]([C@@H]2O[C@H](COP(=O)([O-])[O-])[C@@H](O)[C@H]2O)c1.[Na+]` [Compound I-001, Sodium ((2R,3S,4R,5R)-5-(3-carbamoylpyridin-1-ium-1-yl)-3,4-dihydroxytetrahydrofuran-2-yl)methyl phosphate]: the “Fold increase compared to NMN” value turned out to be 1.7 and the “Fold Increase compared to NMN on a molar basis” value amounted to 1.78.
`NC(=O)c1ccc[n+]([C@@H]2O[C@H](COP(=O)([O-])O)[C@@H](O)[C@H]2O)c1` [NMN, nicotinamide mononucleotide]: the “Fold increase compared to NMN” value came to 1.0 and the “Fold Increase compared to NMN on a molar basis” value is 1.0.

The values are drawn from patent US20250145652A1, “INORGANIC SALTS OF NICOTINAMIDE MONONUCLEOTIDE AS ANTI-AGING AGENTS” (Life Biosciences Inc., priority 2018, published 2025).
